Laboratory results as given in BindingDB's records for doi:10.1021/np980122t (Istituto Per La Chimica Di Molecole Di Interesse Biologico …, 1998).

Tests used:
[1] = Inhibition of rat air pouch group2 sPLA2 at 10 uM by liquid scintillation counting
[2] = Inhibition of human synovial group2 sPLA2 at 10 uM by liquid scintillation counting
[3] = Inhibition of bee venom group3 sPLA2 at 10 uM by liquid scintillation counting
[4] = Inhibition of Naja naja venom group1 sPLA2 at 10 uM by liquid scintillation counting

Row | Structure (SMILES) | inhibition [1] [%] | inhibition [2] [%] | IC50 [3] [µM] | IC50 [4] [µM]
1 | C=C1CCC[C@H]2[C@](C)(CCC3=CCC(C4=CC(=O)OC4O)OC3)[C@H](C)CC[C@]12C (stereo partly drawn) [CACOSPONGIONOLIDE B] | 36.9 | 86.7 | 35.4 | –
2 | CC1=CCC[C@@H]2[C@@](C)(CCC3=CC[C@H](C4=CC(=O)O[C@H]4O)OC3)[C@@H](C)CC[C@@]12C [cacospongionolide E] | 65.1 | 96.7 | 94.8 | –
3 | C[C@H]1CC[C@@]23C[C@]2(C)CCC[C@@H]3[C@@]1(C)CCC1=CC[C@H](C2=CC(=O)O[C@H]2O)OC1 [cacospongionolide] | 21.8 | 90.7 | – | 3.5
4 | CC1=C(CC/C(C)=C/CCC2=CC[C@H](C3=CC(=O)O[C@H]3O)O[C@H]2O)C(C)(C)CCC1 [5-Hydroxy-4-{(R)-6-hydroxy-5-[(E)-4-methyl-6-(2,6,6-trimethyl-cyclohex-1-enyl)-hex-3-enyl]-3,6-dihydro-2H-pyran-2-yl}-5H-furan-2-one] | 38.4 | 93.2 | 62.5 | 17
